From patent US6355799B1, “Substituted benzene compounds, process for their preparation, and herbicidal and defoliant compositions containing them” (ISK Americas Incorporated, priority 1997, dated 2002)

What was measured:
Type in all cases: in vivo
[1] = tested on: field corn (Zea mays L., var. Dekalb 535, CORN); assay: Post-emerge test, crop safety; conditions: phytotoxicity rating 0-100 (0 no damage, 100 complete death), 14 days after application
In short: (§1)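 Fourteen days after spraying, crop and weed injury was graded visually from 0, no effect, to 100, every plant dead. Test substances were dissolved in acetone and applied at 15–1000 g ai/ha with a flat-fan nozzle. Application was either pre-emergence, one day after sowing, or post-emergence at the 2–3 leaf stage.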

[2] = tested on: upland rice (Oryza sp., var. Tebonnet, RICE); assay: Post-emerge test, crop safety; conditions: phytotoxicity rating 0-100 (0 no damage, 100 complete death), 14 days after application
In short: as §1

[3] = tested on: redroot pigweed (Amaranthus retroflexus, AMARE); assay: Post-emerge test, greenhouse herbicide activity screening; conditions: phytotoxicity rating 0-100 (0 no damage, 100 complete death), 14 days after application
In short: (§2)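 Applied at 15–1000 g ai/ha from acetone in 187 l/ha spray volume. Post-emergence applications included 0.25% v/v non-ionic surfactant and reached plants sown 8–21 days before. Pre-emergence applications were incorporated by surface watering. Efficacy or crop damage was rated on a 0–100 scale after 14 days.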

[4] = tested on: ivyleaf morningglory (Ipomoea hederacea, IPOHE); assay: as above; conditions: phytotoxicity rating 0-100 (0 no damage, 100 complete death), 14 days after application
In short: as §2

[5] = tested on: lambsquarters (Chenopodium album, CHEAL); assay: as above; conditions: phytotoxicity rating 0-100 (0 no damage, 100 complete death), 14 days after application
In short: as §2

[6] = tested on: barnyardgrass (Echinochloa crus-galli, ECHCG); assay: as above; conditions: phytotoxicity rating 0-100 (0 no damage, 100 complete death), 14 days after application
In short: as §2

[7] = tested on: velvetleaf (Abutilon theophrasti, ABUTH); assay: as above; conditions: phytotoxicity rating 0-100 (0 no damage, 100 complete death), 14 days after application
In short: as §2

[8] = tested on: johnsongrass (Sorghum halepense, SORHA); assay: as above; conditions: phytotoxicity rating 0-100 (0 no damage, 100 complete death), 14 days after application
In short: as §2

[9] = tested on: large crabgrass (Digitaria sanguinalis, DIGSA); assay: as above; conditions: phytotoxicity rating 0-100 (0 no damage, 100 complete death), 14 days after application
In short: as §2

[10] = tested on: green foxtail (Setaria viridis, SETVI); assay: as above; conditions: phytotoxicity rating 0-100 (0 no damage, 100 complete death), 14 days after application
In short: as §2

[11] = tested on: sicklepod (Cassia obtusifolia, CASOB); assay: as above; conditions: phytotoxicity rating 0-100 (0 no damage, 100 complete death), 14 days after application
In short: as §2

[12] = tested on: field corn (Zea mays L., var. Dekalb 535, CORN); assay: Pre-emerge test, crop safety; conditions: pre-emerge, rated 14 days after application, 0 = no damage, 100 = complete death
In short: (§3)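 Compounds in acetone were track-sprayed at 15-1000 g ai/ha (187 l/ha) on sandy loam pots: pre-emerge one day after seeding, post-emerge at 2-3 leaf stage with 0.25% v/v non-ionic surfactant. Phytotoxicity was rated 14 days later on a 0 (no damage) to 100 (complete death) scale.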

[13] = tested on: upland rice (Oryza sp., var. Tebonnet, RICE); assay: Pre-emerge test, crop safety; conditions: pre-emerge, rated 14 days after application, 0 = no damage, 100 = complete death
In short: as §3

[14] = tested on: ivyleaf morningglory (Ipomoea hederacea, IPOHE); assay: Pre-emerge test, greenhouse herbicide activity screening; conditions: pre-emerge, rated 14 days after application, 0 = no damage, 100 = complete death
In short: as §1

[15] = tested on: lambsquarters (Chenopodium album, CHEAL); assay: as above; conditions: pre-emerge, rated 14 days after application, 0 = no damage, 100 = complete death
In short: as §1

[16] = tested on: barnyardgrass (Echinochloa crus-galli, ECHCG); assay: as above; conditions: pre-emerge, rated 14 days after application, 0 = no damage, 100 = complete death
In short: as §1

[17] = tested on: velvetleaf (Abutilon theophrasti, ABUTH); assay: as above; conditions: pre-emerge, rated 14 days after application, 0 = no damage, 100 = complete death
In short: as §1

[18] = tested on: johnsongrass (Sorghum halepense, SORHA); assay: as above; conditions: pre-emerge, rated 14 days after application, 0 = no damage, 100 = complete death
In short: as §1

[19] = tested on: large crabgrass (Digitaria sanguinalis, DIGSA); assay: as above; conditions: pre-emerge, rated 14 days after application, 0 = no damage, 100 = complete death
In short: as §1

[20] = tested on: green foxtail (Setaria viridis, SETVI); assay: as above; conditions: pre-emerge, rated 14 days after application, 0 = no damage, 100 = complete death
In short: as §1

[21] = tested on: sicklepod (Cassia obtusifolia, CASOB); assay: as above; conditions: pre-emerge, rated 14 days after application, 0 = no damage, 100 = complete death
In short: as §1

[22] = tested on: redroot pigweed (Amaranthus retroflexus, AMARE); assay: as above; conditions: pre-emerge, rated 14 days after application, 0 = no damage, 100 = complete death
In short: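 Sandy loam pots; pre-emerge: sown 1 d pre-spray, surface-watered after, then bottom-watered. Post-emerge: sown 8–21 d before, 2–3 leaf stage, + 0.25% v/v NIS, bottom-watered. Acetone, 187 l/ha track spray, 15–1000 g ai/ha. 0–100 injury score, day 14.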

COc1c(Cl)cc(F)c(-n2c(=O)cc(C(F)(F)F)n(C)c2=O)c1NC(=O)C(C)(C)C [2-3]
Post-emerge Herbicidal Activity CORN (crop damage) ([1]; 63 g ai/ha): 0
Post-emerge Herbicidal Activity CORN (crop damage) ([1]; 250 g ai/ha): 10
Post-emerge Herbicidal Activity RICE (crop damage) ([2]; 63 g ai/ha): 0
Post-emerge Herbicidal Activity RICE (crop damage) ([2]; 250 g ai/ha): 40
Post-emerge Herbicidal Activity AMARE ([3]; 63 g ai/ha): 10
Post-emerge Herbicidal Activity AMARE ([3]; 250 g ai/ha): 40
Post-emerge Herbicidal Activity IPOHE ([4]; 63 g ai/ha): 60
Post-emerge Herbicidal Activity IPOHE ([4]; 250 g ai/ha): 100
Post-emerge Herbicidal Activity CHEAL ([5]; 63 g ai/ha): 30
Post-emerge Herbicidal Activity CHEAL ([5]; 250 g ai/ha): 30
Post-emerge Herbicidal Activity ECHCG ([6]; 63 g ai/ha): 0
Post-emerge Herbicidal Activity ECHCG ([6]; 250 g ai/ha): 0
Post-emerge Herbicidal Activity ABUTH ([7]; 63 g ai/ha): 80
Post-emerge Herbicidal Activity ABUTH ([7]; 250 g ai/ha): 100
Post-emerge Herbicidal Activity SORHA ([8]; 63 g ai/ha): 0
Post-emerge Herbicidal Activity SORHA ([8]; 250 g ai/ha): 0
Post-emerge Herbicidal Activity DIGSA ([9]; 63 g ai/ha): 0
Post-emerge Herbicidal Activity DIGSA ([9]; 250 g ai/ha): 0
Post-emerge Herbicidal Activity SETVI ([10]; 63 g ai/ha): 0
Post-emerge Herbicidal Activity SETVI ([10]; 250 g ai/ha): 0
Post-emerge Herbicidal Activity CASOB ([11]; 63 g ai/ha): 0
Post-emerge Herbicidal Activity CASOB ([11]; 250 g ai/ha): 0
Pre-emerge crop damage CORN (phytotoxicity rating, scale 0-100) ([12]; 63 g ai/ha): 0
Pre-emerge crop damage CORN (phytotoxicity rating, scale 0-100) ([12]; 250 g ai/ha): 30
Pre-emerge crop damage RICE (phytotoxicity rating, scale 0-100) ([13]; 63 g ai/ha): 20
Pre-emerge crop damage RICE (phytotoxicity rating, scale 0-100) ([13]; 250 g ai/ha): 50
Pre-emerge Herbicidal Activity IPOHE (phytotoxicity rating, scale 0-100) ([14]; 63 g ai/ha): 60
Pre-emerge Herbicidal Activity IPOHE (phytotoxicity rating, scale 0-100) ([14]; 250 g ai/ha): 100
Pre-emerge Herbicidal Activity CHEAL (phytotoxicity rating, scale 0-100) ([15]; 63 g ai/ha): 100
Pre-emerge Herbicidal Activity CHEAL (phytotoxicity rating, scale 0-100) ([15]; 250 g ai/ha): 100
Pre-emerge Herbicidal Activity ECHCG (phytotoxicity rating, scale 0-100) ([16]; 63 g ai/ha): 0
Pre-emerge Herbicidal Activity ECHCG (phytotoxicity rating, scale 0-100) ([16]; 250 g ai/ha): 40
Pre-emerge Herbicidal Activity ABUTH (phytotoxicity rating, scale 0-100) ([17]; 63 g ai/ha): 100
Pre-emerge Herbicidal Activity ABUTH (phytotoxicity rating, scale 0-100) ([17]; 250 g ai/ha): 100
Pre-emerge Herbicidal Activity SORHA (phytotoxicity rating, scale 0-100) ([18]; 63 g ai/ha): 10
Pre-emerge Herbicidal Activity SORHA (phytotoxicity rating, scale 0-100) ([18]; 250 g ai/ha): 30
Pre-emerge Herbicidal Activity DIGSA (phytotoxicity rating, scale 0-100) ([19]; 63 g ai/ha): 30
Pre-emerge Herbicidal Activity DIGSA (phytotoxicity rating, scale 0-100) ([19]; 250 g ai/ha): 60
Pre-emerge Herbicidal Activity SETVI (phytotoxicity rating, scale 0-100) ([20]; 63 g ai/ha): 90
Pre-emerge Herbicidal Activity SETVI (phytotoxicity rating, scale 0-100) ([20]; 250 g ai/ha): 100
Pre-emerge Herbicidal Activity CASOB (phytotoxicity rating, scale 0-100) ([21]; 63 g ai/ha): 60
Pre-emerge Herbicidal Activity CASOB (phytotoxicity rating, scale 0-100) ([21]; 250 g ai/ha): 100
Pre-emerge Herbicidal Activity AMARE (phytotoxicity rating, scale 0-100) ([22]; 63 g ai/ha): 100
Pre-emerge Herbicidal Activity AMARE (phytotoxicity rating, scale 0-100) ([22]; 250 g ai/ha): 100
